Assay results: ChEMBL document CHEMBL3885861, “Open TG-GATES”

Organism: Rattus norvegicus
Assay: Open TG-GATES - Regimen: Single
Assay type: toxicity, organism-based, Sprague-Dawley
Parameters: regimen Single, gender Male, age 6 weeks
Settings: in vivo, po, 0 mg/kg, route gavage, dose level Control; for APTT / Bas / Eos / Fbg / Hb / Ht / Lym / MCH / MCHC / MCV / Mono / Neu / PT / Plat / RBC / Ret / WBC: tissue Blood; for KIDNEY_L / KIDNEY_R / KIDNEY_TOTAL: tissue Kidney; for LIVER: tissue Liver; for A/G / ALP / ALT / AST / BUN / CRE / Ca / Cl / DBIL / GLC / IP / K / LDH / Na / PL / RALB / TBIL / TC / TG / TP / gamma-GTP: tissue Plasma

With `Cn1cnc([N+](=O)[O-])c1Sc1ncnc2nc[nH]c12` [AZATHIOPRINE] the TERMINAL_BW (3 h) was 189.8 g, the APTT (3 h) was 23.1 s and the Bas (3 h) was 0%. It also gave an Eos (3 h) of 1%, a Fbg (3 h) of 288.2 mg/dL and a Hb (3 h) of 13.4 g/dL. The Ht (3 h) was 39.3%, the Lym (3 h) was 78.6% and the MCH (3 h) was 21.9 pg. It also gave an MCHC (3 h) of 34%, an MCV (3 h) of 64.5 fL and a Mono (3 h) of 2.4%. It also gave a Neu (3 h) of 17.2%, a PT (3 h) of 15.7 s and a Plat (3 h) of 117.7 x10_4/uL. For the same molecule, the RBC (3 h) was 610.8 x10_4/ul, the Ret (3 h) was 9.3% and the WBC (3 h) was 98.5 x10_2/uL. The KIDNEY_L (3 h) was 0.9 g, the KIDNEY_R (3 h) was 0.9 g and the KIDNEY_TOTAL (3 h) was 1.7 g. It also gave an LIVER (3 h) of 8.6 g, an A/G (3 h) of 1.1 and an ALP (3 h) of 1465.6 IU/L. It also gave an ALT (3 h) of 46.8 IU/L, an AST (3 h) of 78.4 IU/L and a BUN (3 h) of 11.8 mg/dL. The CRE (3 h) was 0.2 mg/dL, the Ca (3 h) was 10.3 mg/dL and the Cl (3 h) was 107 meq/L. The DBIL (3 h) was 0 mg/dL, the GLC (3 h) was 175.4 mg/dL and the IP (3 h) was 8.2 mg/dL. It also gave a K (3 h) of 3.9 meq/L, an LDH (3 h) of 217.6 IU/L and a Na (3 h) of 142.6 meq/L. It also gave a PL (3 h) of 129.6 mg/dL, an RALB (3 h) of 2.9 g/dL and a TBIL (3 h) of 0.006 mg/dL. For the same molecule, the TC (3 h) was 79 mg/dL, the TG (3 h) was 46 mg/dL and the TP (3 h) was 5.5 g/dL. For the same molecule, the gamma-GTP (3 h) was 1.2 IU/L, the TERMINAL_BW (6 h) was 186.3 g and the APTT (6 h) was 21.1 s. For the same molecule, the Bas (6 h) was 0%, the Eos (6 h) was 1% and the Fbg (6 h) was 307.4 mg/dL. For the same molecule, the Hb (6 h) was 13.2 g/dL, the Ht (6 h) was 39.3% and the Lym (6 h) was 73.8%. It also gave an MCH (6 h) of 21.6 pg, an MCHC (6 h) of 33.7% and an MCV (6 h) of 64.1 fL. For the same molecule, the Mono (6 h) was 2.4%, the Neu (6 h) was 22% and the PT (6 h) was 15.7 s. It also gave a Plat (6 h) of 124.9 x10_4/uL, an RBC (6 h) of 612.4 x10_4/ul and a Ret (6 h) of 9.5%. For the same molecule, the WBC (6 h) was 66 x10_2/uL, the KIDNEY_L (6 h) was 0.9 g and the KIDNEY_R (6 h) was 0.9 g. The KIDNEY_TOTAL (6 h) was 1.7 g, the LIVER (6 h) was 8.4 g and the A/G (6 h) was 1.3. The ALP (6 h) was 1451.6 IU/L, the ALT (6 h) was 42.8 IU/L and the AST (6 h) was 70.8 IU/L. It also gave a BUN (6 h) of 11.6 mg/dL, a CRE (6 h) of 0.1 mg/dL and a Ca (6 h) of 10.4 mg/dL. It also gave a Cl (6 h) of 106.4 meq/L, a DBIL (6 h) of 0.002 mg/dL and a GLC (6 h) of 183.8 mg/dL. For the same molecule, the IP (6 h) was 8.8 mg/dL, the K (6 h) was 4.2 meq/L and the LDH (6 h) was 254.6 IU/L. The Na (6 h) was 141.6 meq/L, the PL (6 h) was 137.8 mg/dL and the RALB (6 h) was 3.1 g/dL. For the same molecule, the TBIL (6 h) was 0.014 mg/dL, the TC (6 h) was 77.6 mg/dL and the TG (6 h) was 66.8 mg/dL. It also gave a TP (6 h) of 5.5 g/dL, a gamma-GTP (6 h) of 1 IU/L and a TERMINAL_BW (9 h) of 190.4 g. It also gave an APTT (9 h) of 20.8 s, a Bas (9 h) of 0% and an Eos (9 h) of 0.6%. The Fbg (9 h) was 301.8 mg/dL, the Hb (9 h) was 12.6 g/dL and the Ht (9 h) was 37.7%. For the same molecule, the Lym (9 h) was 79.6%, the MCH (9 h) was 21.6 pg and the MCHC (9 h) was 33.2%. The MCV (9 h) was 65 fL, the Mono (9 h) was 2% and the Neu (9 h) was 16.2%. For the same molecule, the PT (9 h) was 15.2 s, the Plat (9 h) was 127.2 x10_4/uL and the RBC (9 h) was 582 x10_4/ul. The Ret (9 h) was 9.9%, the WBC (9 h) was 93.5 x10_2/uL and the KIDNEY_L (9 h) was 0.9 g. For the same molecule, the KIDNEY_R (9 h) was 0.9 g, the KIDNEY_TOTAL (9 h) was 1.9 g and the LIVER (9 h) was 8.2 g. The A/G (9 h) was 1.3, the ALP (9 h) was 1520.4 IU/L and the ALT (9 h) was 38 IU/L. It also gave an AST (9 h) of 72.8 IU/L, a BUN (9 h) of 10.6 mg/dL and a CRE (9 h) of 0.1 mg/dL. For the same molecule, the Ca (9 h) was 10.5 mg/dL, the Cl (9 h) was 105.6 meq/L and the DBIL (9 h) was 0.004 mg/dL. The GLC (9 h) was 176.2 mg/dL, the IP (9 h) was 9.5 mg/dL and the K (9 h) was 4.3 meq/L. For the same molecule, the LDH (9 h) was 182.4 IU/L, the Na (9 h) was 141.2 meq/L and the PL (9 h) was 125.2 mg/dL. It also gave an RALB (9 h) of 3 g/dL, a TBIL (9 h) of 0.016 mg/dL and a TC (9 h) of 76.4 mg/dL. For the same molecule, the TG (9 h) was 46.2 mg/dL, the TP (9 h) was 5.3 g/dL and the gamma-GTP (9 h) was 1 IU/L. For the same molecule, the TERMINAL_BW (24 h) was 202.7 g, the APTT (24 h) was 21.7 s and the Bas (24 h) was 0%. It also gave an Eos (24 h) of 0.6%, a Fbg (24 h) of 308.2 mg/dL and a Hb (24 h) of 13.5 g/dL. It also gave a Ht (24 h) of 39.6%, a Lym (24 h) of 77.4% and an MCH (24 h) of 22.2 pg. It also gave an MCHC (24 h) of 34.1%, an MCV (24 h) of 65.2 fL and a Mono (24 h) of 2%. It also gave a Neu (24 h) of 18.6%, a PT (24 h) of 16.2 s and a Plat (24 h) of 117.2 x10_4/uL. For the same molecule, the RBC (24 h) was 607 x10_4/ul, the Ret (24 h) was 8.8% and the WBC (24 h) was 97.8 x10_2/uL. It also gave a KIDNEY_L (24 h) of 0.9 g, a KIDNEY_R (24 h) of 0.9 g and a KIDNEY_TOTAL (24 h) of 1.7 g. For the same molecule, the LIVER (24 h) was 9.6 g, the A/G (24 h) was 1.2 and the ALP (24 h) was 1642 IU/L. The ALT (24 h) was 46 IU/L, the AST (24 h) was 74.6 IU/L and the BUN (24 h) was 16.8 mg/dL. The CRE (24 h) was 0.1 mg/dL, the Ca (24 h) was 11 mg/dL and the Cl (24 h) was 106.8 meq/L. The DBIL (24 h) was 0 mg/dL, the GLC (24 h) was 185.6 mg/dL and the IP (24 h) was 7 mg/dL. The K (24 h) was 3.9 meq/L, the LDH (24 h) was 223.2 IU/L and the Na (24 h) was 143.2 meq/L. The PL (24 h) was 156.8 mg/dL, the RALB (24 h) was 3.1 g/dL and the TBIL (24 h) was 0.006 mg/dL. The TC (24 h) was 86.8 mg/dL, the TG (24 h) was 102.8 mg/dL and the TP (24 h) was 5.6 g/dL. It also gave a gamma-GTP (24 h) of 1 IU/L.
